Source: patent publication US11524968B2, “Heterocyclic compound as a protein kinase inhibitor” (HK inno.N Corporation, priority 2017, dated 2022)

target: JAK1 (Homo sapiens (Human), UniProt P23458); assay: Analysis of JAK1 activity inhibition ability (ADP-Glo Kinase Assay); format: biochemical; settings: JAK1 enzyme, ADP-Glo luminescence, ATP 250 uM, IRS-itide substrate, 30° C. 40 minutes; read-out: IC50
Outline: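 JAK1 enzyme, IRS-itide substrate (40 ng/mL) and 250 uM ATP, both as prepared in kinase buffer (Tris-HCl pH 7.5, MgCl2, BSA, DTT), reacted with compound 40 min at 30 °C. ADP formed was detected by ADP-Glo luminescence; IC50 is the concentration giving 50% inhibition versus control.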

JAK1, sequence (P23458 whole entry): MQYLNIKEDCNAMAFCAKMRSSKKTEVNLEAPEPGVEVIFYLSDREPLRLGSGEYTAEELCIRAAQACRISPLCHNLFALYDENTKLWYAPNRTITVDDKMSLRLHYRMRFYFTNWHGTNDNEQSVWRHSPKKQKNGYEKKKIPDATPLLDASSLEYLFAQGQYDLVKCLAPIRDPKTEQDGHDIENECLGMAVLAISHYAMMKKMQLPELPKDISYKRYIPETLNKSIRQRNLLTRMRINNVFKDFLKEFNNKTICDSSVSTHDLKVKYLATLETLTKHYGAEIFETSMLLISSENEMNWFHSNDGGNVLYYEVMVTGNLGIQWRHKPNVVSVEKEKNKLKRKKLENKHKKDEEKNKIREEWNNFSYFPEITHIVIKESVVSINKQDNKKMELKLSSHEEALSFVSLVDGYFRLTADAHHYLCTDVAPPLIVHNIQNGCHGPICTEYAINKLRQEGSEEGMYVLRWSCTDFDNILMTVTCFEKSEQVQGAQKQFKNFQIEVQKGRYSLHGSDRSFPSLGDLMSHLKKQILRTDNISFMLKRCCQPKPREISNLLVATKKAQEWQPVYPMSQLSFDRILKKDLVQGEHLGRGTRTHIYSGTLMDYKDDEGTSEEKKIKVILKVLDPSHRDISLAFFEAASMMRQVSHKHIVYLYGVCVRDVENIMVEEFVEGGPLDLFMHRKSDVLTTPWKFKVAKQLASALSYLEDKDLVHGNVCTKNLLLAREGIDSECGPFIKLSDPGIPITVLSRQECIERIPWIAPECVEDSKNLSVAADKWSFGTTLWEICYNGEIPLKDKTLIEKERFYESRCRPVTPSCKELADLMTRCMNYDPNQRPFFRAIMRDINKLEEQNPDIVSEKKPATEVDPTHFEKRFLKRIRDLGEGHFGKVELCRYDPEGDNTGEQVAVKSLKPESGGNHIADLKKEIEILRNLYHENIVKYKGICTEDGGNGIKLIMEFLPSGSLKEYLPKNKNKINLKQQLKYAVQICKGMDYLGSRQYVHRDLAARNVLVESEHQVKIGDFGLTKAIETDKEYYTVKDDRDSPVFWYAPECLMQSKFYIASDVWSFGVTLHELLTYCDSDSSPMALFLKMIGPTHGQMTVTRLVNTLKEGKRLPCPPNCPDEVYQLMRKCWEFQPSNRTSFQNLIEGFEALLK

Question: With `O=C(Nc1cc(-c2cnn(C3CNC3)c2)c2cc[nH]c2n1)C1CC1` [Example 600, N-(4-(1-(azetidin-3-yl)-1H-pyrazol-4-yl)-1H-pyrrolo[2,3-b]pyridin-6-yl)cyclopropanecarboxamide] as the molecule, how does the IC50 read?
Answer: 20 to 200 nM

Question: `CC1CN(C(=O)c2cccc(Br)n2)CC=C1c1cc(NC(=O)C2CC2)nc2[nH]ccc12` (stereo not drawn) [Example 337, N-(4-(1-(6-bromopicolinoyl)-3-methyl-1,2,3,6-tetrahydropyridin-4-yl)-1H-pyrrolo[2,3-b]pyridin-6-yl)cyclopropanecarboxamide] was tested. Which IC50 did it give?
Answer: 20 to 200 nM

Question: For `CCCCNC(=O)N1CC=C(c2cc(NC(=O)C3CC3)nc3[nH]ccc23)CC1` [Example 444, N-butyl-4-(6-(cyclopropanecarboxamido)-1H-pyrrolo[2,3-b]pyridin-4-yl)-3,6-dihydropyridine-1 (2H)-carboxamide], which IC50 is on record?
Answer: 20 to 200 nM

Question: For `O=C(Nc1cc(C2=CCN(S(=O)(=O)C3CC3)CC2)c2cc[nH]c2n1)C1CC1` [Example 168, N-(4-(1-(cyclopropylsulfonyl)-1,2,3,6-tetrahydropyridin-4-yl)-1H-pyrrolo[2,3-b]pyridin-6-yl)cyclopropanecarboxamide], which IC50 is on record?
Answer: 20 to 200 nM

Question: Which IC50 does the source give for `O=C(Nc1cc(C2=CCN(C(=O)C3CC3C(F)(F)F)CC2)c2cc[nH]c2n1)C1CC1` (stereo not drawn) [Example 282, N-(4-(1-(2-(trifluoromethyl)cyclopropane-1-carbonyl)-1,2,3,6-tetrahydropyridin-4-yl)-1H-pyrrolo[2,3-b]pyridin-6-yl)cyclopropanecarboxamide] here?
Answer: 20 to 200 nM

Question: Which IC50 does the source give for `CN1CCN(C(=O)Cc2ccc(-c3cc(NC(=O)C4CC4)nc4[nH]ccc34)cc2)CC1` [Example 550, N-(4-(4-(2-(4-methylpiperazin-1-yl)-2-oxoethyl)phenyl)-1H-pyrrolo[2,3-b]pyridin-6-yl)cyclopropanecarboxamide] here?
Answer: 20 to 200 nM

Question: How did the IC50 turn out when `CC(C)(C)C1C=C(c2cc(NC(=O)C3CC3)nc3[nH]ccc23)CCN1C(=O)CC#N` (stereo not drawn) [Example 412, N-(4-(6-(tert-butyl)-1-(2-cyanoacetyl)-1,2,3,6-tetrahydropyridin-4-yl)-1H-pyrrolo[2,3-b]pyridin-6-yl)cyclopropanecarboxamide] was run?
Answer: < 20 nM

Question: `CCS(=O)(=O)Nc1cc(F)c(-c2cc(NC(=O)C3CC3)nc3[nH]ccc23)cc1F` [Example 83, N-(4-(4-(ethylsulfonamido)-2,5-difluorophenyl)-1H-pyrrolo[2,3-b]pyridin-6-yl)cyclopropanecarboxamide] was tested. Which IC50 did it give?
Answer: < 20 nM

Question: How did the IC50 turn out when `CC(C)S(=O)(=O)Nc1ccc(-c2cc(NC(=O)C3CC3)nc3[nH]ccc23)cc1` [Example 41, N-(4-(4-((1-methylethyl)sulfonamido)phenyl)-1H-pyrrolo[2,3-b]pyridin-6-yl)cyclopropanecarboxamide] was run?
Answer: < 20 nM

Question: How did the IC50 turn out when `CCCCNC(=O)N1C2C=C(c3cc(NC(=O)C4CC4)nc4[nH]ccc34)CC1CC2` (stereo not drawn) [Example 449, N-butyl-3-(6-(cyclopropanecarboxamido)-1H-pyrrolo[2,3-b]pyridin-4-yl)-8-azabicyclo[3.2.1]oct-2-ene-8-carboxamide] was run?
Answer: 20 to 200 nM

Question: For `N#CCC1(N2CC=C(c3cc(NC(=O)C4CC4)nc4[nH]ccc34)CC2)COC1` [Example 612, N-(4-(1-(3-(cyanomethyl)oxetan-3-yl)-1,2,3,6-tetrahydropyridin-4-yl)-1H-pyrrolo[2,3-b]pyridine-6-yl) cyclopropanecarboxamide], which IC50 is on record?
Answer: > 200 nM

Question: `CCS(=O)(=O)Nc1ccc(-c2nc(Nc3ccccc3)nc3[nH]ccc23)cc1F` [Example 719, N-(2-fluoro-4-(2-(phenylamino)-7H-pyrrolo[2,3-d]pyrimidin-4-yl)phenyl)ethanesulfonamide] was tested. Which IC50 did it give?
Answer: 20 to 200 nM

Question: With `COc1ccc(S(=O)(=O)Nc2ccc(-c3cc(NC(=O)C4CC4)nc4[nH]ccc34)cc2)cn1` [Example 23, N-(4-(4-((6-methoxypyridine)-3-sulfonamido)phenyl)-1H-pyrrolo[2,3-b]pyridin-6-yl)cyclopropanecarboxamide] as the molecule, how does the IC50 read?
Answer: < 20 nM

Question: `N#CCCNC(=O)Cc1ccc(-c2cc(NC(=O)C3CC3)nc3[nH]ccc23)cc1` [Example 553, N-(4-(4-(2-((2-cyanoethyl)amino)-2-oxoethyl)phenyl)-1H-pyrrolo[2,3-b]pyridin-6-yl)cyclopropanecarboxamide] was tested. Which IC50 did it give?
Answer: 20 to 200 nM

Question: How did the IC50 turn out when `CC1CN(C(=O)c2cccnc2Cl)CC=C1c1cc(NC(=O)C2CC2)nc2[nH]ccc12` (stereo not drawn) [Example 349, N-(4-(1-(2-chloronicotinoyl)-3-methyl-1,2,3,6-tetrahydropyridin-4-yl)-1H-pyrrolo[2,3-b]pyridin-6-yl)cyclopropanecarboxamide] was run?
Answer: 20 to 200 nM

Question: How did the IC50 turn out when `O=C(Nc1cc(-c2ccc(NS(=O)(=O)C(F)F)cc2)c2cc[nH]c2n1)C1CC1` [Example 50, N-(4-(4-((difluoromethyl)sulfonamido)phenyl)-1H-pyrrolo[2,3-b]pyridin-6-yl)cyclopropanecarboxamide] was run?
Answer: 20 to 200 nM

Question: Which IC50 does the source give for `N#CC1(CS(=O)(=O)N2C3CCC2CN(c2cc(NC(=O)C4CC4)nc4[nH]ccc24)C3)CC1` [Example 667, N-(4-(8-(((1-cyanocyclopropyl)methyl)sulfonyl)-3,8-diazabicyclo[3.2.1]octan-3-yl)-1H-pyrrolo[2,3-b]pyridin-6-yl)cyclopropanecarboxamide] here?
Answer: < 20 nM

Question: `O=C(Nc1cc(C2=CCN(C(=O)C3CC3)CC2)c2cc[nH]c2n1)C1CC1` [Example 264, N-(4-(1-(cyclopropanecarbonyl)-1,2,3,6-tetrahydropyridin-4-yl)-1H-pyrrolo[2,3-b]pyridin-6-yl)cyclopropanecarboxamide] was tested. Which IC50 did it give?
Answer: 20 to 200 nM

Question: With `CC1CN(C(=O)c2ccc(C(C)(C)C)[nH]c2=O)CC=C1c1cc(NC(=O)C2CC2)nc2[nH]ccc12` (stereo not drawn) [Example 321, N-(4-(1-(6-(tert-butyl)-2-oxo-1,2-dihydropyridine-3-carbonyl)-3-methyl-1,2,3,6-tetrahydropyridin-4-yl)-1H-pyrrolo[2,3-b]pyridin-6-yl)cyclopropanecarboxamide] as the molecule, how does the IC50 read?
Answer: > 200 nM

Question: Which IC50 does the source give for `CCN1CCN(C(=O)Cc2ccc(-c3cc(NC(=O)C4CC4)nc4[nH]ccc34)cc2)CC1` [Example 551, N-(4-(4-(2-(4-ethylpiperazin-1-yl)-2-oxoethyl)phenyl)-1H-pyrrolo[2,3-b]pyridin-6-yl)cyclopropanecarboxamide] here?
Answer: > 200 nM

Question: How did the IC50 turn out when `O=C(Nc1cc(-c2cnn(C3CN(S(=O)(=O)C(F)(F)F)C3)c2)c2cc[nH]c2n1)C1CC1` [Example 599, N-(4-(1-(1-((trifluoromethyl)sulfonyl)azetidin-3-yl)-1H-pyrazol-4-yl)-1H-pyrrolo[2,3-b]pyridin-6-yl)cyclopropanecarboxamide] was run?
Answer: < 20 nM

Question: For `CCc1cc(NS(=O)(=O)CC2(C#N)CC2)ccc1-c1cc(NC(=O)C2CC2)[n+]([O-])c2[nH]ccc12` [Example 137, 4-(4-(((1-cyanocyclopropyl)methyl)sulfonamido)-2-ethylphenyl)-6-(cyclopropanecarboxamido)-1H-pyrrolo[2,3-b]pyridine 7-oxide], which IC50 is on record?
Answer: < 20 nM

Question: Which IC50 does the source give for `CCCS(=O)(=O)Nc1ccc(-c2cc(NC(=O)C3CC3)nc3[nH]ccc23)cc1F` [Example 66, N-(4-(3-fluoro-4-(propylsulfonamido)phenyl)-1H-pyrrolo[2,3-b]pyridin-6-yl)cyclopropanecarboxamide] here?
Answer: < 20 nM

Question: For `O=C(Nc1cc(C2=CCN(C(=O)NCC(F)(F)F)CC2)c2cc[nH]c2n1)C1CC1` [Example 443, 4-(6-(cyclopropanecarboxamido)-1H-pyrrolo[2,3-b]pyridin-4-yl)-N-(2,2,2-trifluoroethyl)-3,6-dihydropyridine-1 (2H)-carboxamide], which IC50 is on record?
Answer: < 20 nM

Question: `CC1CN(C(=O)CCCC#N)CC=C1c1cc(NC(=O)C2CC2)nc2[nH]ccc12` (stereo not drawn) [Example 285, N-(4-(1-(4-cyanobutanoyl)-3-methyl-1,2,3,6-tetrahydropyridin-4-yl)-1H-pyrrolo[2,3-b]pyridin-6-yl)cyclopropanecarboxamide] was tested. Which IC50 did it give?
Answer: 20 to 200 nM

Question: For `CCOCCS(=O)(=O)Nc1ccc(-c2cc(NC(=O)C3CC3)nc3[nH]ccc23)cc1` [Example 53, N-(4-(4-((2-ethoxyethyl)sulfonamido)phenyl)-1H-pyrrolo[2,3-b]pyridin-6-yl)cyclopropanecarboxamide], which IC50 is on record?
Answer: 20 to 200 nM

Question: With `CCCS(=O)(=O)Nc1ccc(-c2cc(NC(=O)C3CC3)nc3[nH]ccc23)nc1F` [Example 150, N-(4-(6-fluoro-5-(propylsulfonamido)pyridin-2-yl)-1H-pyrrolo[2,3-b]pyridin-6-yl)cyclopropanecarboxamide] as the molecule, how does the IC50 read?
Answer: > 200 nM

Question: Which IC50 does the source give for `O=C(Nc1cc(N2CCN(C(=O)NCC(F)(F)F)CC2)c2cc[nH]c2n1)C1CC1` [Example 690, 4-(6-(cyclopropanecarboxamido)-1H-pyrrolo[2,3-b]pyridin-4-yl)-N-(2,2,2-trifluoroethyl)piperazine-1-carboxamide] here?
Answer: > 200 nM

Question: `O=C(Nc1cc(-c2ccc(CNC(=O)N3CCOCC3)cc2)c2cc[nH]c2n1)C1CC1` [Example 579, N-(4-(6-(cyclopropanecarboxamido)-1H-pyrrolo[2,3-b]pyridin-4-yl)benzyl)morpholine-4-carboxamide] was tested. Which IC50 did it give?
Answer: > 200 nM

Question: Which IC50 does the source give for `N#CCNC(=O)N1CC=C(c2cc(NC(=O)C3CC3)nc3[nH]ccc23)CC1` [Example 447, N-(cyanomethyl)-4-(6-(cyclopropanecarboxamido)-1H-pyrrolo[2,3-b]pyridin-4-yl)-3,6-dihydropyridine-1 (2H)-carboxamide] here?
Answer: 20 to 200 nM

Question: How did the IC50 turn out when `O=C(Nc1cc(-c2ccc(NS(=O)(=O)c3ccc(F)c(F)c3)cc2)c2cc[nH]c2n1)C1CC1` [Example 2, N-(4-(4-((3,4-difluorophenyl)sulfonamido)phenyl)-1H-pyrrolo[2,3-b]pyridin-6-yl)cyclopropanecarboxamide] was run?
Answer: < 20 nM

Question: For `Cn1cc(S(=O)(=O)Nc2ccc(-c3cc(NC(=O)C4CC4)nc4[nH]ccc34)cc2)cn1` [Example 16, N-(4-(4-((1-methyl-1H-pyrazole)-4-sulfonamido)phenyl)-1H-pyrrolo[2,3-b]pyridin-6-yl)cyclopropanecarboxamide], which IC50 is on record?
Answer: 20 to 200 nM

Question: `O=C(Nc1cc(C2=CCN(C(=O)CCl)CC2)c2cc[nH]c2n1)C1CC1` [Example 298, N-(4-(1-(2-chloroacetyl)-1,2,3,6-tetrahydropyridin-4-yl)-1H-pyrrolo[2,3-b]pyridin-6-yl)cyclopropanecarboxamide] was tested. Which IC50 did it give?
Answer: 20 to 200 nM
